Data as given in PubChem BioAssay AID248 (DTP/NCI, 2004).
“And” between values parts separate entries of the source, which are not always exact repeats. Equal entries are not always repeated. Inconclusive results and toxic doses are left out. Rule as the data show it: active = T/C of 150% or more; inactive = T/C below 125%.

Test system: L1210 leukemia ip in BDF1 mice, survival T/C
Experiment: NCI In Vivo Anticancer Drug Screen. Data for tumor model L1210 Leukemia (intraperitoneal) in B6D2F1 (BDF1) mice
Conditions: endpoint: mean survival time, higher = longer survival
Outline: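 Ratio derived from survival: compound-dosed mice over vehicle-dosed mice, all bearing a transplantable tumor.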

[1] = dose: 100.0 mg/kg/injection, schedule: Q04DX003 (ip), vehicle: saline with Tween-80
[2] = dose: 200.0 mg/kg/injection, schedule: Q04DX003 (ip), vehicle: saline with Tween-80
[3] = dose: 400.0 mg/kg/injection, schedule: Q04DX003 (ip), vehicle: saline with Tween-80
[4] = dose: 100.0 mg/kg/injection, schedule: Q01DX001 (ip), vehicle: saline
[5] = dose: 100.0 mg/kg/injection, schedule: Q01DX001 (ip), vehicle: carboxymethylcellulose (CMC)
[6] = dose: 200.0 mg/kg/injection, schedule: Q01DX001 (ip), vehicle: carboxymethylcellulose (CMC)
[7] = dose: 400.0 mg/kg/injection, schedule: Q01DX001 (ip), vehicle: carboxymethylcellulose (CMC)
[8] = dose: 200.0 mg/kg/injection, schedule: Q01DX001 (ip), vehicle: saline
[9] = dose: 400.0 mg/kg/injection, schedule: Q01DX001 (ip), vehicle: saline
[10] = dose: 25.0 mg/kg/injection, schedule: Q01DX009 (ip), vehicle: saline with Tween-80
[11] = dose: 50.0 mg/kg/injection, schedule: Q01DX009 (ip), vehicle: saline with Tween-80
[12] = dose: 100.0 mg/kg/injection, schedule: Q01DX009 (ip), vehicle: saline with Tween-80
[13] = dose: 100.0 mg/kg/injection, schedule: Q04DX003 (ip), vehicle: saline
[14] = dose: 200.0 mg/kg/injection, schedule: Q04DX003 (ip), vehicle: saline

Measured: T/C

CS(=O)(=O)OCCNCCOS(C)(=O)=O
inactive: dose: 15.0 mg/kg/injection, schedule: Q01DX001 (ip), vehicle: saline 104 % of control | dose: 30.0 mg/kg/injection, schedule: Q01DX001 (ip), vehicle: saline 113 % of control | dose: 60.0 mg/kg/injection, schedule: Q01DX001 (ip), vehicle: saline 106 % of control | dose: 75.0 mg/kg/injection, schedule: Q01DX001 (ip), vehicle: saline 93 % of control

CCCCSc1nc(NCC)nc(NCC)n1
inactive: dose: 100.0 mg/kg/injection, schedule: Q04DX002 (sc), vehicle: olive oil, sesame oil, peanut oil 102 % of control | dose: 200.0 mg/kg/injection, schedule: Q04DX002 (sc), vehicle: olive oil, sesame oil, peanut oil 105 % of control | dose: 400.0 mg/kg/injection, schedule: Q04DX002 (sc), vehicle: olive oil, sesame oil, peanut oil 115 % of control

O=S1c2ccccc2Sc2ccccc21
inactive: [1] 103 % of control | [2] 97 % of control | [3] 100 % of control

CSc1cc(=O)n2c3ccccc3c3ccnc1c32
inactive: dose: 5.0 mg/kg/injection, schedule: Q01DX001 (ip), vehicle: saline 98 % of control | dose: 10.0 mg/kg/injection, schedule: Q01DX001 (ip), vehicle: saline 98 % of control | dose: 20.0 mg/kg/injection, schedule: Q01DX001 (ip), vehicle: saline 100 % of control | dose: 40.0 mg/kg/injection, schedule: Q01DX001 (ip), vehicle: saline 98 % of control | dose: 80.0 mg/kg/injection, schedule: Q01DX001 (ip), vehicle: saline 100 % of control | [4] 120 % of control

CCOc1ccc(/C=C/c2cc[n+](C)cc2)cc1OC
inactive: dose: 25.0 mg/kg/injection, schedule: Q01DX001 (ip), vehicle: saline with Tween-80 108 % of control | dose: 50.0 mg/kg/injection, schedule: Q01DX001 (ip), vehicle: saline with Tween-80 95 % of control | dose: 100.0 mg/kg/injection, schedule: Q01DX001 (ip), vehicle: saline with Tween-80 93 % of control

O=C(c1ccccc1)c1ccc(Br)cc1O
inactive: [5] 105 % of control | [6] 98 % of control | [7] 100 % of control

O=c1[nH]nnc2nc[nH]c12
inactive: dose: 25.0 mg/kg/injection, schedule: Q01DX001 (ip), vehicle: steriod suspending solution 109 % of control | dose: 46.1 mg/kg/injection, schedule: Q01DX001 (ip), vehicle: steriod suspending solution 100 % of control | dose: 50.0 mg/kg/injection, schedule: Q01DX001 (ip), vehicle: steriod suspending solution 113 % of control | dose: 65.9 mg/kg/injection, schedule: Q01DX001 (ip), vehicle: steriod suspending solution 100 % of control | dose: 94.2 mg/kg/injection, schedule: Q01DX001 (ip), vehicle: steriod suspending solution 102 % of control | dose: 100.0 mg/kg/injection, schedule: Q01DX001 (ip), vehicle: steriod suspending solution 109 % of control | dose: 134.5 mg/kg/injection, schedule: Q01DX001 (ip), vehicle: steriod suspending solution 97 % of control | dose: 192.1 mg/kg/injection, schedule: Q01DX001 (ip), vehicle: steriod suspending solution 101 % of control | dose: 200.0 mg/kg/injection, schedule: Q01DX001 (ip), vehicle: steriod suspending solution 100 % of control | dose: 274.4 mg/kg/injection, schedule: Q01DX001 (ip), vehicle: steriod suspending solution 103 % of control | dose: 392.0 mg/kg/injection, schedule: Q01DX001 (ip), vehicle: steriod suspending solution 108 % of control | dose: 400.0 mg/kg/injection, schedule: Q01DX001 (ip), vehicle: steriod suspending solution 105 % of control | dose: 560.0 mg/kg/injection, schedule: Q01DX001 (ip), vehicle: steriod suspending solution 95 % of control | dose: 800.0 mg/kg/injection, schedule: Q01DX001 (ip), vehicle: steriod suspending solution 96 % of control

Cc1cc2c(cc1C)-c1ccccc1C2=O
inactive: [5] 102 % of control | [6] 102 % of control | [7] 96 % of control

COc1ccn(C2CCCO2)c(=O)n1 (centres undefined)
inactive: dose: 50.0 mg/kg/injection, schedule: Q01DX001 (ip), vehicle: saline 101 % of control | [4] 101 % of control | [8] 104 % of control | [9] 104 % of control

CC(C)[As](=O)(O)O
inactive: dose: 25.0 mg/kg/injection, schedule: Q01DX009 (ip), vehicle: saline 97 % of control | dose: 50.0 mg/kg/injection, schedule: Q01DX009 (ip), vehicle: saline 90 % of control | dose: 100.0 mg/kg/injection, schedule: Q01DX009 (ip), vehicle: saline 104 % of control and 106 % of control

O=[N+]([O-])c1ccc(SCCCN2CCCCC2)c([N+](=O)[O-])c1
inactive: dose: 50.0 mg/kg/injection, schedule: Q01DX001 (ip), vehicle: carboxymethylcellulose (CMC) 96 % of control

COc1c(N)cc2c(c1C)OCOC2
inactive: [4] 97 % of control | [8] 100 % of control | [9] 105 % of control

COc1c(NC(=O)c2cccc(C(=O)Nc3cccc([N+](=O)[O-])c3OC)c2)cccc1[N+](=O)[O-]
inactive: dose: 100.0 mg/kg/injection, schedule: Q01DX009 (ip), vehicle: Klucel (hydroxypropylcellulose) (HPC) 96 % of control | dose: 200.0 mg/kg/injection, schedule: Q01DX009 (ip), vehicle: Klucel (hydroxypropylcellulose) (HPC) 89 % of control | dose: 400.0 mg/kg/injection, schedule: Q01DX009 (ip), vehicle: Klucel (hydroxypropylcellulose) (HPC) 92 % of control

Nc1ncnc2c1c(S(=O)(=O)O)cn2C1OC(CO)C(O)C1O (centres undefined)
inactive: dose: 100.0 mg/kg/injection, schedule: Q01DX001 (ip), vehicle: Klucel (hydroxypropylcellulose) (HPC) 90 % of control | dose: 200.0 mg/kg/injection, schedule: Q01DX001 (ip), vehicle: Klucel (hydroxypropylcellulose) (HPC) 93 % of control | dose: 400.0 mg/kg/injection, schedule: Q01DX001 (ip), vehicle: Klucel (hydroxypropylcellulose) (HPC) 100 % of control

CCCC(=O)c1c(O)cc(O)cc1O
inactive: [5] 98 % of control | [6] 96 % of control | [7] 93 % of control

O=C(COc1ccc(Cl)cc1Cl)Nc1ccc(F)cc1
inactive: [10] 93 % of control | [11] 91 % of control | [12] 104 % of control and 88 % of control

NC(=O)Nc1cccc2c1-c1ccccc1C2=O
inactive: dose: 100.0 mg/kg/injection, schedule: Q04DX003 (ip), vehicle: acetone 88 % of control | dose: 400.0 mg/kg/injection, schedule: Q04DX003 (ip), vehicle: acetone 100 % of control

CCN(CC)C(=O)C1CCC(CCc2c[nH]c3ccccc23)NC1 (centres undefined)
inactive: [4] 94 % of control

COc1nc(N)c(C(N)=O)cc1C#N
inactive: dose: 87.0 mg/kg/injection, schedule: Q04DX003 (ip), vehicle: Klucel (hydroxypropylcellulose) (HPC) 97 % of control

CN(C)C(=O)NN
inactive: [12] 104 % of control

Nc1ncnc2c1ncn2C(/C=N/Nc1ccccc1)OC(/C=N\Nc1ccccc1)CO (centres undefined)
inactive: dose: 100.0 mg/kg/injection, schedule: Q01DX001 (ip), vehicle: other 106 % of control | dose: 200.0 mg/kg/injection, schedule: Q01DX001 (ip), vehicle: other 108 % of control

CC1(C)CC(=O)CC(C)(C)N1
inactive: [13] 107 % of control | [14] 100 % of control

CC(CCC(CCC(C)CC(C)(C)C)CCC(C)CC(C)(C)C)CC(C)(C)C (centres undefined)
inactive: dose: 75.0 mg/kg/injection, schedule: Q01DX001 (ip), vehicle: saline with Tween-80 104 % of control | dose: 300.0 mg/kg/injection, schedule: Q01DX001 (ip), vehicle: saline with Tween-80 97 % of control

N#CC(C#N)C(=O)c1ccccc1
inactive: dose: 12.5 mg/kg/injection, schedule: Q01DX009 (ip), vehicle: saline with Tween-80 100 % of control | [10] 100 % of control | [11] 96 % of control | [1] 95 % of control | [2] 95 % of control | [3] 89 % of control

CSc1ccc(NC(=O)Nc2c(C)n(C)n(-c3ccccc3)c2=O)cc1
inactive: [4] 89 % of control | [12] 89 % of control | [13] 94 % of control | [8] 89 % of control | dose: 200.0 mg/kg/injection, schedule: Q01DX009 (ip), vehicle: saline with Tween-80 89 % of control | [14] 94 % of control | [9] 94 % of control | dose: 400.0 mg/kg/injection, schedule: Q01DX009 (ip), vehicle: saline with Tween-80 86 % of control | dose: 400.0 mg/kg/injection, schedule: Q04DX003 (ip), vehicle: saline 87 % of control

O=S(=O)(c1ccccc1)C(Br)Br
inactive: dose: 50.0 mg/kg/injection, schedule: Q04DX003 (ip), vehicle: saline with Tween-80 101 % of control | [1] 103 % of control | [2] 101 % of control

O=C1OC(c2ccccc2)C=C1Nc1ccccc1 (centres undefined)
inactive: [1] 95 % of control | [2] 95 % of control | [3] 91 % of control
